Like-named read-outs stand apart in the source and are kept apart here.
Key:
human CB2 receptor = human CB2 receptor (Homo sapiens (Human), UniProt P34972); experiment: cAMP assay, CHO cells expressing human CB2 receptors; type: cell-based
Experimental: (§1) CHO cells expressing human CB1 or CB2 receptors are seeded 17-24 hours prior to the experiment 50.000 cells per well in a black 96 well plate with flat clear bottom (Corning Costar #3904) in DMEM (Invitrogen No. 31331), lx HT supplement, with 10% fetal calf serum and incubated at 5% CO2 and 37° C. in a humidified incubator. The growth medium was exchanged with Krebs Ringer Bicarbonate buffer with 1 mM IBMX and incubated at 30° C. for 30 min. Compounds were added to a final assay volume of 100 μl and incubated for 30 min at 30° C. Using the cAMP-Nano-TRF detection kit the assay (Roche Diagnostics) was stopped by the addition of 50 μl lysis reagent (Tris, NaCl, 1.5% Triton X100, 2.5% NP40, 10% NaN3) and 50 μl detection solutions (20 μM mAb Alexa700-cAMP 1:1, and 48 μM Ruthenium-2-AHA-cAMP) and shaken for 2 h at room temperature. The time-resolved energy transfer is measured by a TRF reader (Evotec Technologies GmbH), equipped with a ND:YAG laser as excitation source. The plate is measured twice with the excitation at 355 nm and at the emission with a delay of 100 ns and a gate of 100 ns, total exposure time 10 s at 730 (bandwidth 30 nm) or 645 nm (bandwidth 75 nm), respectively. The FRET signal is calculated as follows: FRET=T730-Alexa730-P(T645-B645) with P=Ru730-B730/Ru645-B645, where T730 is the test well measured at 730 nM, T645 is the test well measured at 645 nm, B730 and B645 are the buffer controls at 730 nm and 645 nm, respectively. cAMP content is determined from the function of a standard curve spanning from 10 μM to 0.13 nM cAMP.
(§2) EC50 values were determined using Activity Base analysis (ID Business Solution, Limited). The EC50 values for a wide range of cannabinoid agonists generated from this assay were in agreement with the values published in the scientific literature.

human CB1 receptor = human CB1 receptor (Homo sapiens (Human), UniProt P21554); experiment: cAMP assay, CHO cells expressing human CB1 receptors; type: cell-based
Experimental: as §1, §2

[1] = functional cAMP assay, CHO cells expressing human CB2, read-out: human CB2 EC50
[2] = functional cAMP assay, CHO cells expressing human CB1, read-out: human CB1 EC50

Chain of human CB1 receptor (P21554 whole entry): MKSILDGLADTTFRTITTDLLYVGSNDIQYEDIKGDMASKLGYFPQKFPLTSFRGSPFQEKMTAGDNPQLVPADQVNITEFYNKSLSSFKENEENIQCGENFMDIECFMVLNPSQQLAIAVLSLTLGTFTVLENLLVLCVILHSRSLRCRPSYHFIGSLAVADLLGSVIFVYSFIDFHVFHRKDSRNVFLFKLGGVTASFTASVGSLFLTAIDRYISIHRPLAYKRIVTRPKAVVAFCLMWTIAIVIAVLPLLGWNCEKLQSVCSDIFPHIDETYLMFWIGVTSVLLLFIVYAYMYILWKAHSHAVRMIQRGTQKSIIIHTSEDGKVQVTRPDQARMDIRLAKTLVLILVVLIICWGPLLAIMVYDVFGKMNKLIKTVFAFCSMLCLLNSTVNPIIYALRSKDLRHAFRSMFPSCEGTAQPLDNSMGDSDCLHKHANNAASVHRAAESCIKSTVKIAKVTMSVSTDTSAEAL
Chain of human CB2 receptor (P34972 whole entry): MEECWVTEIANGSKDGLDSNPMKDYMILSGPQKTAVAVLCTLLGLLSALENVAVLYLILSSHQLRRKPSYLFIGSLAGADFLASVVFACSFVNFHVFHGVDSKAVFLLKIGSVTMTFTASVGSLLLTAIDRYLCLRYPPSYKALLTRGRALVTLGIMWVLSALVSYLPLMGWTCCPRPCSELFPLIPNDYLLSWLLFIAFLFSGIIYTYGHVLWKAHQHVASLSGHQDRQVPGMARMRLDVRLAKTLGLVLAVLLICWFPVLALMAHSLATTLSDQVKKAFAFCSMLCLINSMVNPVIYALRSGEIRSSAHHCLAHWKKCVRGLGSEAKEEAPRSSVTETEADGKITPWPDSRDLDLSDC

SMILES | EC50 (human CB2 receptor; [1]) [nM] | EC50 (human CB1 receptor; [2]) [nM] | EC50 (human CB2 receptor) [nM] | EC50 (human CB1 receptor) [nM]
CC(C)(C)c1nc(N2CCC(F)(F)C2)c2cnn(Cc3ccccc3S(C)(=O)=O)c2n1 [Example 10, 6-tert-Butyl-4-(3,3-difluoro-pyrrolidin-1-yl)-1-(2-methanesulfonyl-benzyl)-1H-pyrazolo[3,4-d]pyrimidine] | 0.7 | 337 | – | –
CC(C)(C)c1nc(N2CCC[C@@H]2CO)c2cnn(Cc3ccccc3C(F)(F)F)c2n1 [Example 34, {(R)-1-[6-tert-Butyl-1-[(2-trifluoromethylphenyl)methyl]-1H-pyrazolo[3,4-d]pyrimidin-4-yl]pyrrolidin-2-yl}-methanol] | 5 | > 10000 | – | –
CC(C)(C)COc1nc(N2CCC(F)(F)C2)c2cnn(Cc3ccccc3C(F)(F)F)c2n1 [Example 38, 4-(3,3-Difluoropyrrolidin-1-yl)-6-(2,2-dimethylpropoxy)-1-[[2-(trifluoromethyl)phenyl]methyl]pyrazolo[3,4-d]pyrimidine] | 16 | > 10000 | – | –
CCOc1nc(C(C)(C)C)nc2c1cnn2Cc1ccccc1Cl [Example 5, 6-tert-Butyl-1-[(2-chlorophenyl)methyl]-4-ethoxy-1H-pyrazolo[3,4-d]pyrimidine] | 25.5 | > 10000 | – | –
Cn1nncc1Cn1ncc2c(N3CCC(F)(F)C3)nc(C(C)(C)C)nc21 [Example 19, 6-tert-Butyl-4-(3,3-difluoro-pyrrolidin-1-yl)-1-(3-methyl-3H-[1,2,3]triazol-4-ylmethyl)-1H-pyrazolo[3,4-d]pyrimidine] | – | – | 1.4 | > 10000
CC(C)(C)c1nc(N2CCC(F)(F)C2)c2cnn(C3CCOC3)c2n1 (stereo not drawn) [Example 14, 6-tert-Butyl-4-(3,3-difluoro-pyrrolidin-1-yl)-1-(tetrahydro-furan-3-yl)-1H-pyrazolo[3,4-d]pyrimidine] | 1.3 | > 10000 | – | –
CC(C)(C)c1nc(N2CCC(F)(F)C2)c2cnn(Cc3cccnc3Cl)c2n1 [Example 12, 6-tert-Butyl-1-(2-chloro-pyridin-3-ylmethyl)-4-(3,3-difluoro-pyrrolidin-1-yl)-1H-pyrazolo[3,4-d]pyrimidine] | 1.6 | 1570 | – | –
CC(C)(C)c1nc(N2CCC(F)(F)C2)c2cnn(Cc3ccccc3Cl)c2n1 [Example 4, 6-tert-Butyl-1-[(2-chlorophenyl)methyl]-4-(3,3-difluoro-pyrrolidin-1-yl)-1H-pyrazolo[3,4-d]pyrimidine] | 4.2 | > 10000 | – | –
CC(C)(C)c1nc(N2CCC(F)(F)C2)c2cnn(CCc3ccccc3)c2n1 [Example 8, 6-tert-Butyl-4-(3,3-difluoro-pyrrolidin-1-yl)-1-phenethyl-1H-pyrazolo[3,4-d]pyrimidine] | 5.4 | > 10000 | – | –
